Results as given in patent EP3248604A1, “AGENTS FOR MODULATION OF WNT-TCF SIGNALLING AND USES THEREOF” (UNIVERSITE DE GENEVE, priority 2016, dated 2017).

Assays:
cell proliferation = assay: BrdU incorporation assay; format: cell-based; conditions: Example 3 (Ls174T, DLD1 cells)
Procedure: Cells incubated in vitro with different compounds were treated in DMEM-F12 with reduced serum (2.5% FBS) for 20 min with BrdU (5-bromo-2'-deoxyuridine; 10mg/ml, Sigma), washed and fixed with fresh paraformaldehyde (PFA; 4%, pH 8) followed by acid treatment and neutralization (Melotti et al., 2014, supra). Antibody analyses used anti-BrdU antibodies (supplied by University of Iowa Hybridoma Bank) and rhodamine-coupled anti-mouse secondary antibodies (Invitrogen Molecular Probes). Nuclei were counterstained with DAPI (4',6-diamidino-2-phenylindole; Sigma).

WNT-TCF targets = assay: RT-qPCR gene expression in Ls174T cells; format: cell-based, human; conditions: Ls174T
Procedure: (§1) RT-qPCR was performed as in Melotti et al. (2014, supra) using BioRad equipment and reagents. Cells cultured in nitro were treated with the desired concentration of drug in DMEM-F12 and reduced serum (2.5% FBS) for 16h, unless otherwise noted, and collected in Trizol (Sigma) before total RNA extraction and cDNA synthesis. Primers were as in Table 1. HPRT (gene encoding Hypoxanthine phosphoribosyltransferase 1) and βACTIN were used as housekeeping controls for normalization.
Compounds have been tested for the transcriptional modulation of a restricted TCF signature in human colon cancer Ls174T cells. These included the direct targets AXIN2 (gene encoding a protein axis inhibition protein 2), LGR5 (gene encoding encodes leucine-rich repeat-containing G-protein coupled receptor 5) and cMYC (a regulator gene encoding a transcription factor), which should be repressed by WNT-TCF response antagonists and p21 (or CDKN1A, gene encoding a cyclin-dependent kinase inhibitor that inhibits the complexes of CDK2 and CDK1), which should be induced.

Ls174T cells = assay: Clonal spheroid assay, Ls174T; format: cell-based, human; conditions: Homo sapiens, LS174T, 16 h, read-out: IC50, number of stem cell-derived spheroids
Procedure: Cells were treated with different concentrations of compounds for 16h in 2D adherent culture, washed, harvested and plated in suspension with serum-free DMEM-F12 media with B27 supplement (1:50 dilution) at 1 cell/well in 96-well format in triplicates. Plated cells were monitored to ensure the presence of single cells in each well and spheroids counted and photographed after 10 days for each round.
To directly test for a long-lasting repression of WNT-TCF targets by CAP2 clonogenic properties of cancer stem cells were tested. DLD1 and LS174T cells were first treated with CAP2 in 2D culture in vitro followed by removal of the drug, washing with PBS, and plating under non-adherent 3D conditions for clonal spheroid growth in the absence of the drug. After primary spheroid growth, the spheroids were dissociated and replated as single cells for secondary and subsequent clonogenic spheroid formation, also in the absence of the compound of the invention. As negative control DMSO-treatment was used.

BMP/TGFβ = assay: RT-qPCR gene expression in Ls174T cells, BMP/TGFβ genes; format: cell-based, human; conditions: vs DMSO=1
Procedure: as §1
(§2) Nine components of the three pathways (WNT-TCF, BMP/TGFβ and chemokine/cytokine), and the top 6 repressed epigenetic regulators (ZMYND8, EED, SMARCAL1, TBLIXR1, SETD6 and TAF5L) (Figure 12) were tested for their modulation by dnTCF and their timed response to CAP2 treatment. […] DnTCF also repressed the expression of BMP4, SMAD6, IL8, CXCL3 and CXCL5, but expression of IL33 was enhanced. […] BMP4 and ID2 were also repressed at 2 and 4h but SMAD6 was repressed only at 4h. CXCL3 was already repressed at 2h, IL8 was little affected and IL33 and CXCL5 were enhanced at 2h. At 4 h only CXCL3 was repressed and the other three cytokine/chemokine genes tested (IL8, IL33 and CXCL5) were neither enhanced nor repressed. […] All values are normalized ratios with DMSO-controls, which were equated to 1 Table 14

Epigenetic regulators = assay: RT-qPCR gene expression in Ls174T cells, epigenetic regulators; format: cell-based, human; design: key: ratio normalized to DMSO control = 1; conditions: vs DMSO=1
Procedure: as §1, §2

[1] = 1.25µM, 16h, batch 3, vs DMSO=1
[2] = 5µM batch 3, 2h post-treatment, vs DMSO=1
[3] = 5µM batch 3, 4h post-treatment, vs DMSO=1
[4] = Table 11, head 'in vitro', concentration not given

`CC1=C(C)C(=O)O[C@@H]([C@](C)(O)[C@]2(O)CC[C@@]3(O)[C@@H]4CC=C5CC=CC(=O)[C@]5(C)[C@H]4CC[C@]23C)C1` [CAP2] was tested, and the “concentration which changes cell proliferation assessed by BrdU incorporation” value (cell proliferation) was 1.25 µM, the AXIN2 expression (WNT-TCF targets; [1]) was 0.6 and the LGR5 expression (WNT-TCF targets; [1]) was 0.2. It also gave an AXIN2 expression (WNT-TCF targets; 2.5µM, 16h, batch 3, vs DMSO=1) of 0.4, an LGR5 expression (WNT-TCF targets; 2.5µM, 16h, batch 3, vs DMSO=1) of 0.1 and an AXIN2 expression (WNT-TCF targets; [2]) of 0.2. The LGR5 expression (WNT-TCF targets; [2]) was 0.7, the AXIN2 expression (WNT-TCF targets; [3]) was 0.1 and the LGR5 expression (WNT-TCF targets; [3]) was 0.1. The AXIN2 expression (WNT-TCF targets; 5µM, 16h, batch 3, vs DMSO=1) was 0.2, the LGR5 expression (WNT-TCF targets; 5µM, 16h, batch 3, vs DMSO=1) was 0.03 and the AXIN2 expression (WNT-TCF targets; 10 µM, 16h) was 0.6. The CDKN1A expression (WNT-TCF targets; 10 µM, 16h) was 3.7, the LGR5 expression (WNT-TCF targets; 10 µM, 16h) was 0.7 and the cMYC expression (WNT-TCF targets; 10 µM, 16h) was 0.6. The AXIN2 expression (WNT-TCF targets; 10µM, 16h, batch 3, vs DMSO=1) was 0.1, the LGR5 expression (WNT-TCF targets; 10µM, 16h, batch 3, vs DMSO=1) was 0.1 and the “AXIN2 expression level as compared to control” value (WNT-TCF targets; 2D culture, 2.5µm) was 0.4. The ASCL2 expression (WNT-TCF targets; Table 7, 1.25µM, vs DMSO=1) was 1.1, the AXIN2 expression (WNT-TCF targets; Table 7, 1.25µM, vs DMSO=1) was 0.7 and the CDKN1A expression (WNT-TCF targets; Table 7, 1.25µM, vs DMSO=1) was 3.5. It also gave an LEF1 expression (WNT-TCF targets; Table 7, 1.25µM, vs DMSO=1) of 1.2, an LGR5 expression (WNT-TCF targets; Table 7, 1.25µM, vs DMSO=1) of 0.3 and a cMYC expression (WNT-TCF targets; Table 7, 1.25µM, vs DMSO=1) of 0.04. The ASCL2 expression (WNT-TCF targets; Table 7, 2.5µM, vs DMSO=1) was 0.4, the AXIN2 expression (WNT-TCF targets; Table 7, 2.5µM, vs DMSO=1) was 0.4 and the CDKN1A expression (WNT-TCF targets; Table 7, 2.5µM, vs DMSO=1) was 5.4. For the same compound, the LEF1 expression (WNT-TCF targets; Table 7, 2.5µM, vs DMSO=1) was 0.7, the LGR5 expression (WNT-TCF targets; Table 7, 2.5µM, vs DMSO=1) was 0.2 and the cMYC expression (WNT-TCF targets; Table 7, 2.5µM, vs DMSO=1) was 0.1. For the same compound, the ASCL2 expression (WNT-TCF targets; Table 7, 5µM, vs DMSO=1) was 0.1, the AXIN2 expression (WNT-TCF targets; Table 7, 5µM, vs DMSO=1) was 0.3 and the CDKN1A expression (WNT-TCF targets; Table 7, 5µM, vs DMSO=1) was 11.4. The LEF1 expression (WNT-TCF targets; Table 7, 5µM, vs DMSO=1) was 0.5, the LGR5 expression (WNT-TCF targets; Table 7, 5µM, vs DMSO=1) was 0.1 and the cMYC expression (WNT-TCF targets; Table 7, 5µM, vs DMSO=1) was 0.1. The ASCL2 expression (WNT-TCF targets; Table 7, 10µM, vs DMSO=1) was 0.1, the AXIN2 expression (WNT-TCF targets; Table 7, 10µM, vs DMSO=1) was 0.1 and the CDKN1A expression (WNT-TCF targets; Table 7, 10µM, vs DMSO=1) was 7.6. For the same compound, the LEF1 expression (WNT-TCF targets; Table 7, 10µM, vs DMSO=1) was 0.3, the LGR5 expression (WNT-TCF targets; Table 7, 10µM, vs DMSO=1) was 0.1 and the cMYC expression (WNT-TCF targets; Table 7, 10µM, vs DMSO=1) was 0.01. For the same compound, the ASCL2 expression (WNT-TCF targets; [4]) was 0.1, the AXIN2 expression (WNT-TCF targets; [4]) was 0.3 and the LGR5 expression (WNT-TCF targets; [4]) was 0.1. The IC50 (Ls174T cells) was < 1.25 µM, the BMP4 expression (BMP/TGFβ; 5µM batch 3, 2h post-treatment) was 0.4 and the ID2 expression (BMP/TGFβ; 5µM batch 3, 2h post-treatment) was 0.7. The SMAD6 expression (BMP/TGFβ; 5µM batch 3, 2h post-treatment) was 1.3, the BMP4 expression (BMP/TGFβ; 5µM batch 3, 4h post-treatment) was 0.1 and the ID2 expression (BMP/TGFβ; 5µM batch 3, 4h post-treatment) was 0.1. For the same compound, the SMAD6 expression (BMP/TGFβ; 5µM batch 3, 4h post-treatment) was 0.4, the EED expression (Epigenetic regulators; 5µM batch 3, 2h post-treatment) was 1.5 and the SETD6 expression (Epigenetic regulators; 5µM batch 3, 2h post-treatment) was 2.0. It also gave an SMARCAL1 expression (Epigenetic regulators; 5µM batch 3, 2h post-treatment) of 1.6, a TAF5L expression (Epigenetic regulators; 5µM batch 3, 2h post-treatment) of 0.8 and a TBL1XR1 expression (Epigenetic regulators; 5µM batch 3, 2h post-treatment) of 2.6. It also gave a ZMYND8 expression (Epigenetic regulators; 5µM batch 3, 2h post-treatment) of 1.3, an EED expression (Epigenetic regulators; 5µM batch 3, 4h post-treatment) of 0.5 and an SETD6 expression (Epigenetic regulators; 5µM batch 3, 4h post-treatment) of 0.7. For the same compound, the SMARCAL1 expression (Epigenetic regulators; 5µM batch 3, 4h post-treatment) was 0.8, the TAF5L expression (Epigenetic regulators; 5µM batch 3, 4h post-treatment) was 0.3 and the TBL1XR1 expression (Epigenetic regulators; 5µM batch 3, 4h post-treatment) was 0.6. For the same compound, the ZMYND8 expression (Epigenetic regulators; 5µM batch 3, 4h post-treatment) was 0.5.
